Assay results reported in ChEMBL document CHEMBL4706566, “New drug approvals for 2019: Synthesis and clinical applications” (Eur J Med Chem, 2020).

What was measured:
[1] = clinical; details: human
[2] = target: T1, D(2) dopamine receptor (Homo sapiens, UniProt P14416)
Description: Partial agonist activity at presynaptic D2 receptor (unknown origin)

[3] = target: T1, D(2) dopamine receptor; remark: listed apart in the source
Description: Antagonist activity at postsynaptic D2 receptor (unknown origin)

[4] = target: 5-hydroxytryptamine receptor 2A (Homo sapiens, UniProt P28223)
Sequence of 5-hydroxytryptamine receptor 2A (P28223 whole entry): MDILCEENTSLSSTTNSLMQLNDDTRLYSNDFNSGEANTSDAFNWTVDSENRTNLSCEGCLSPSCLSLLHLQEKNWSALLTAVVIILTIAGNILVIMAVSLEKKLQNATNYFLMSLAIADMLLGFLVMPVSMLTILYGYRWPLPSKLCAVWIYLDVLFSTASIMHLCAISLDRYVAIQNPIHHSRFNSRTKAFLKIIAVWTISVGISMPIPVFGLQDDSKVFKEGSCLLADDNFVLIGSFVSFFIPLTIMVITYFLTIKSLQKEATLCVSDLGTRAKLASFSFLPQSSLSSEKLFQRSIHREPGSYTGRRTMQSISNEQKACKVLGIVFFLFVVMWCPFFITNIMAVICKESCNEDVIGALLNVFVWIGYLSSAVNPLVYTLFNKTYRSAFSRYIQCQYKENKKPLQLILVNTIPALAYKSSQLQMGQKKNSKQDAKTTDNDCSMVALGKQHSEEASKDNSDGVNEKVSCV
Description: Antagonist activity at 5HT2A receptor (unknown origin)

T1 sequence (P14416 whole entry): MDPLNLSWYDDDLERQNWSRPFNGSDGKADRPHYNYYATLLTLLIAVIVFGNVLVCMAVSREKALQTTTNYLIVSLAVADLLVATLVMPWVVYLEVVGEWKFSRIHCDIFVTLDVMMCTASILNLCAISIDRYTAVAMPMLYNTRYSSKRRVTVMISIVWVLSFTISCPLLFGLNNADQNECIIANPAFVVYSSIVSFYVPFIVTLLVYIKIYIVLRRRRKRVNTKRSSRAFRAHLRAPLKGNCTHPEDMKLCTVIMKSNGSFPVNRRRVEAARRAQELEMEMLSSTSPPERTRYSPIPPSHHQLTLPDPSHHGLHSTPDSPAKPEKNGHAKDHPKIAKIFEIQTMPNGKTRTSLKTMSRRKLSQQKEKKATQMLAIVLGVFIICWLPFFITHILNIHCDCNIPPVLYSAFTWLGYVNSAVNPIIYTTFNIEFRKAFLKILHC

half-life [1] [h]	IC50 [2] [nM]	IC50 [3] [nM]	IC50 [4] [nM]	SMILES
64				CCn1c(=O)c2c(nc(/C=C/c3ccc(OC)c(OC)c3)n2C)n(CC)c1=O [ISTRADEFYLLINE]
	4.1	3.2	0.54	CN1CCN2c3c(cccc31)[C@@H]1CN(CCCC(=O)c3ccc(F)cc3)CC[C@@H]12 [LUMATEPERONE]
